From ChEMBL document CHEMBL1201862, “PubChem BioAssay data set” (2004)
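Following 48 hours of exposure in 96-well plates, responses at five concentrations were used to interpolate endpoints linearly. Abbreviation: GI50, concentration required for 50% inhibition of growth.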 Active and inactive are the calls of the source. No stated cut-off is given here; in the data, active = GI50 up to about 1.1 µM and inactive = higher.

What was measured:
Experiment in all cases: growth of human tumour cells (NCI), 48 h
OVCAR-8 = tested on: OVCAR-8
SF-539 = tested on: SF-539
A498 = tested on: A498
CAKI-1 = tested on: CAKI-1
HOP-92 = tested on: HOP-92
U-251 = tested on: U-251
SW-620 = tested on: SW-620
HOP-62 = tested on: HOP-62
SK-MEL-5 = tested on: SK-MEL-5
NCI-H23 = tested on: NCI-H23
ACHN = tested on: ACHN
A549 = tested on: A549
IGROV-1 = tested on: IGROV-1
COLO 205 = tested on: COLO 205
NCI-H226 = tested on: NCI-H226
M14 = tested on: M14
NCI-H522 = tested on: NCI-H522
RXF 393 = tested on: RXF 393
RPMI-8226 = tested on: RPMI-8226
LOX IMVI = tested on: LOX IMVI

Measured: GI50

O=P(Nc1ccc(Cl)cc1)(Oc1ccccc1)N(CCCl)CCCl (stereo unspecified)
inactive: OVCAR-8 > 100 µM | SF-539 > 100 µM | A498 > 100 µM | CAKI-1 > 100 µM | HOP-92 > 100 µM | U-251 > 100 µM | SW-620 > 100 µM | HOP-62 > 100 µM | SK-MEL-5 > 100 µM | NCI-H23 > 100 µM | ACHN > 100 µM | A549 > 100 µM | IGROV-1 > 100 µM | COLO 205 > 100 µM | NCI-H226 > 100 µM | M14 > 100 µM | NCI-H522 > 100 µM

C[C@]12CCC3[C@@H](C[C@H]4OC(=O)[C@@]35CCC(=O)C=C45)C1CCC2=O (stereo partly specified)
inactive: OVCAR-8 > 100 µM | SF-539 > 100 µM | RXF 393 > 100 µM | HOP-92 > 100 µM | U-251 > 100 µM | SW-620 > 100 µM | SK-MEL-5 > 100 µM | NCI-H23 > 100 µM | ACHN > 100 µM | A549 > 100 µM | IGROV-1 > 100 µM | COLO 205 > 100 µM | NCI-H226 > 100 µM | M14 > 100 µM | NCI-H522 > 100 µM | RPMI-8226 > 100 µM

O=C(NC(Cc1ccc(I)cc1)C(=O)O)c1cccc(Br)c1 (stereo unspecified)
inactive: OVCAR-8 > 100 µM | SF-539 84.1 µM | A498 > 100 µM | CAKI-1 > 100 µM | HOP-92 44.9 µM | LOX IMVI > 95.9 µM | U-251 78.3 µM | SW-620 > 100 µM | HOP-62 67.3 µM | SK-MEL-5 > 100 µM | NCI-H23 > 100 µM | A549 > 100 µM | IGROV-1 > 100 µM | COLO 205 > 100 µM | NCI-H226 > 100 µM | NCI-H522 > 61.1 µM | RPMI-8226 47.8 µM

C[C@@H](O)C(=O)N1[C@@H]2CC3CC[C@]2(CS1(=O)=O)C3(C)C
inactive: OVCAR-8 > 100 µM | SF-539 48.9 µM | CAKI-1 > 100 µM | RXF 393 > 100 µM | HOP-92 66.1 µM | LOX IMVI > 100 µM | U-251 52.1 µM | SW-620 28.1 µM | HOP-62 > 100 µM | SK-MEL-5 49.2 µM | NCI-H23 62.2 µM | ACHN 64.1 µM | A549 95.1 µM | IGROV-1 > 100 µM | COLO 205 79.3 µM | NCI-H226 23.2 µM | M14 93.5 µM | RPMI-8226 39.7 µM

CCOC(=O)CC1(c2cccc3ccccc23)OC(=O)c2ccccc21 (stereo unspecified)
inactive: OVCAR-8 45.5 µM | A498 23.6 µM | CAKI-1 57.7 µM | RXF 393 16.3 µM | LOX IMVI 60.4 µM | U-251 68.4 µM | SW-620 79.4 µM | SK-MEL-5 21.3 µM | NCI-H23 20.3 µM | ACHN 30.3 µM | A549 41 µM | IGROV-1 > 100 µM | COLO 205 30.4 µM | NCI-H226 67 µM | NCI-H522 24.1 µM | RPMI-8226 23.7 µM

O=S(O)CCCCCSSc1ccccc1
inactive: SF-539 22.8 µM | A498 48.5 µM | RXF 393 18.3 µM | LOX IMVI 20 µM | U-251 21.3 µM | HOP-62 > 100 µM | NCI-H23 52.5 µM | ACHN 85.7 µM | M14 43.8 µM | NCI-H522 15.3 µM | RPMI-8226 18.5 µM

CON(C)c1nc(N)c(C#N)c(C#N)c1C#N
inactive: OVCAR-8 > 10 µM | SF-539 > 10 µM | A498 > 10 µM | CAKI-1 > 10 µM | RXF 393 > 10 µM | LOX IMVI > 10 µM | U-251 > 10 µM | SW-620 > 10 µM | HOP-62 > 10 µM | SK-MEL-5 > 10 µM | NCI-H23 > 10 µM | ACHN > 10 µM | A549 > 10 µM | IGROV-1 > 10 µM | COLO 205 > 10 µM | NCI-H226 > 10 µM | M14 > 10 µM | NCI-H522 > 10 µM | RPMI-8226 > 10 µM

CC(=O)OC1CCC2(C)C(CCC3C4CC=C(C5(C)OCCO5)C4(C)CCC32)C1 (stereo unspecified)
inactive: OVCAR-8 20.1 µM | SF-539 20.5 µM | A498 24.9 µM | CAKI-1 28.3 µM | RXF 393 17.7 µM | LOX IMVI 16.9 µM | U-251 18 µM | SW-620 21 µM | HOP-62 19.1 µM | SK-MEL-5 15.6 µM | NCI-H23 25.6 µM | ACHN 25.1 µM | A549 26.7 µM | IGROV-1 24.2 µM | COLO 205 17.6 µM | NCI-H226 25.9 µM | M14 23 µM | RPMI-8226 14.4 µM

Oc1[nH]c(Nc2cccc(CC(F)(F)F)c2)nc2ncnc1-2
inactive: OVCAR-8 > 100 µM | SF-539 > 100 µM | A498 > 100 µM | CAKI-1 > 100 µM | HOP-92 > 100 µM | LOX IMVI > 100 µM | U-251 > 100 µM | SW-620 > 100 µM | HOP-62 > 100 µM | SK-MEL-5 > 100 µM | NCI-H23 > 100 µM | ACHN > 100 µM | A549 > 100 µM | IGROV-1 > 100 µM | COLO 205 > 100 µM | NCI-H226 > 100 µM | M14 > 100 µM | NCI-H522 > 100 µM | RPMI-8226 > 100 µM

C[C@@H](NC(=O)[C@@H]1C[C@]1(C)COC(=O)c1cc([N+](=O)[O-])cc([N+](=O)[O-])c1)c1cccc2ccccc12
inactive: OVCAR-8 > 100 µM | A498 > 100 µM | CAKI-1 > 100 µM | RXF 393 12.6 µM | HOP-92 80.2 µM | LOX IMVI 60.1 µM | U-251 99.3 µM | SW-620 > 100 µM | HOP-62 53 µM | SK-MEL-5 > 100 µM | NCI-H23 > 100 µM | ACHN 33.7 µM | A549 > 100 µM | IGROV-1 70.3 µM | COLO 205 > 100 µM | NCI-H226 > 100 µM | M14 > 100 µM | RPMI-8226 > 100 µM

Cc1ccc(NC(=O)C2C(=O)N(c3ccc(C)c(C)c3)C(=O)/C2=N\NC(N)=S)cc1C (stereo unspecified)
inactive: SF-539 > 100 µM | CAKI-1 > 100 µM | HOP-92 > 100 µM | LOX IMVI > 100 µM | U-251 58.3 µM | SW-620 > 100 µM | NCI-H23 > 100 µM | ACHN > 100 µM | A549 > 100 µM | IGROV-1 96.4 µM | NCI-H226 > 100 µM | M14 > 100 µM | NCI-H522 50.2 µM | RPMI-8226 > 100 µM

Oc1cc(-c2ccc(Cl)cc2)nc2ncccc12
inactive: OVCAR-8 61.9 µM | SF-539 45.5 µM | A498 68.1 µM | CAKI-1 61.9 µM | HOP-92 41.2 µM | LOX IMVI 49 µM | U-251 36.6 µM | SW-620 31.1 µM | HOP-62 55 µM | NCI-H23 86.5 µM | ACHN 79.4 µM | A549 54.2 µM | IGROV-1 44.3 µM | COLO 205 21.7 µM | NCI-H226 44.6 µM | M14 40.5 µM | NCI-H522 40.3 µM | RPMI-8226 24.3 µM
